Like-named read-outs stand apart in the source and are kept apart here.
Columns and labels:
MCF-7 cell line = assay: In vitro antitumor MTT assay, MCF-7; assay type: cell-based
Experimental: (§3) The antitumor activity was performed by using the tetrazolium salt 3-(4,5-dimethyl-2-thiazolyl)-2,5-diphenyl-2H-tetrazolium bromide (MTT) assay in accordance with an established method[39].

HePG2 cell line = assay: In vitro antitumor MTT assay, HePG2; assay type: cell-based
Experimental: (§1) The antitumor activity was performed by using the tetrazolium salt 3-(4,5-dimethyl-2-thiazolyl)-2,5-diphenyl-2H-tetrazolium bromide (MTT) assay in accordance with an established method.
(§2) Compounds 3a–c, 4a,b, 5a,b, 6a,b, 7a–e, 8, 9a–c, 10, 11, 12a–c, 13, and 14 were screened for their in vitro antitumor activity by using the standard 3-(4,5-dimethylthiazol-2-yl)-2,5-diphenyltetrazolium bromide (MTT) assay against five human cancers: HePG2, HCT-116, MCF-7, PC3, and HeLa cell lines. […].

HCT-116 cell line = assay: In vitro antitumor MTT assay, HCT-116; assay type: cell-based
Experimental: as §3

HeLa cell line = assay: In vitro antitumor MTT assay, HeLa; assay type: cell-based
Experimental: as §1, §2

PC3 cell line = assay: In vitro antitumor MTT assay, PC3; assay type: cell-based
Experimental: as §3

[1] = system: HePG2, HCT-116, MCF-7, PC3, and HeLa cell lines; assay: In vitro antitumor MTT assay, panel of five human cancer cell lines (text summaries); assay type: cell-based; details: for IC50: read-out: IC50, antitumor activity, range over the tested cancer cell lines
Experimental: as §1, §2

[2] = Homo sapiens, MCF7; read-out: IC50 (µM) MCF-7
[3] = Homo sapiens, HepG2; read-out: IC50 (µM) HePG2
[4] = Homo sapiens, HCT-116; read-out: IC50 (µM) HCT-116
[5] = Homo sapiens; read-out: IC50 (µM) HeLa
[6] = Homo sapiens, PC-3; read-out: IC50 (µM) PC3
[7] = Homo sapiens, range over (all or some of) HePG2, HCT-116, MCF-7, PC3, HeLa
[8] = Homo sapiens, MCF7, read-out: IC50 (µM) MCF-7
[9] = Homo sapiens, HepG2, read-out: IC50 (µM) HePG2
[10] = Homo sapiens, HCT-116, read-out: IC50 (µM) HCT-116
[11] = Homo sapiens, read-out: IC50 (µM) HeLa
[12] = Homo sapiens, PC-3, read-out: IC50 (µM) PC3

Row | IC50 (MCF-7 cell line; [2]) | IC50 (HePG2 cell line; [3]) | IC50 (HCT-116 cell line; [4]) | IC50 (HeLa cell line; [5]) | IC50 (PC3 cell line; [6]) | IC50 [1, 7] | melting point | IC50 ([1]; range over (all or some of) HePG2, HCT-116, MCF-7, PC3, HeLa) | SMILES | IC50 (MCF-7 cell line; [8]) | IC50 (HePG2 cell line; [9]) | IC50 (HCT-116 cell line; [10]) | IC50 (HeLa cell line; [11]) | IC50 (PC3 cell line; [12]) | IC50 ([1]; Homo sapiens) | antitumor activity against the tested cancer cell lines (in words) ([1]; all tested cancer cell lines)
1 | 35.2 ± 1.9 µM | 32.9 ± 2.3 µM | 48.1 ± 2.4 µM | 37.5 ± 2.5 µM | 29.2 ± 2.3 µM | 29.2 to 48.1 µM | 190 to 192 °C | – | COc1ccc(C(=S)N2CCOCC2)cc1OC1CCCC1 [Compound 9a, (3-(Cyclopentyloxy)-4-methoxyphenyl)(morpholino)methanethione] | – | – | – | – | – | – | –
2 | 37.1 ± 2 µM | 24.9 ± 1.9 µM | 39.1 ± 2.2 µM | 28.4 ± 2.3 µM | 31.5 ± 2.4 µM | 24.9 to 39.1 µM | 193 to 195 °C | – | COc1ccc(C(=S)N2CCCCC2)cc1OC1CCCC1 [Compound 9b, (3-(Cyclopentyloxy)-4-methoxyphenyl)(piperidin-1-yl)methanethione] | – | – | – | – | – | – | –
3 | 48.9 ± 2.3 µM | 36.3 ± 2.5 µM | 52.9 ± 2.7 µM | 40.6 ± 2.8 µM | 33.4 ± 2.6 µM | 33.4 to 52.9 µM | 191 to 193 °C | – | COc1ccc(C(=S)N2CCN(C(=O)OC(C)(C)C)CC2)cc1OC1CCCC1 [Compound 9c, tert-Butyl 4-(3-(cyclopentyloxy)-4-methoxyphenylcarbonothioyl)piperazine-1-carboxylate] | – | – | – | – | – | – | –
4 | 71.6 ± 3.9 µM | 45.2 ± 3.4 µM | 76 ± 3.6 µM | 65.7 ± 4.1 µM | 79.8 ± 4 µM | – | > 300 °C | – | COc1ccc(-c2cc(-c3ccccc3)[nH]c(=O)c2C#N)cc1OC1CCCC1 [Compound 12a, 4-(3-(Cyclopentyloxy)-4-methoxyphenyl)-2-oxo-6-phenyl-1,2-dihydropyridine-3-carbonitrile] | – | – | – | – | – | – | –
5 | 58.3 ± 2.7 µM | 38.1 ± 2.8 µM | 67.7 ± 3.5 µM | 45.7 ± 3.2 µM | 61.5 ± 3.3 µM | – | > 300 °C | – | COc1ccc(-c2cc(-c3ccc(C)cc3)[nH]c(=O)c2C#N)cc1OC1CCCC1 [Compound 12b, 4-(3-(cyclopentyloxy)-4-methoxyphenyl)-2-oxo-6-(p-tolyl)-1,2-dihydropyridine-3-carbonitrile] | – | – | – | – | – | – | –
6 | 66.1 ± 3.7 µM | 59.6 ± 4 µM | 83.4 ± 4.3 µM | 62.8 ± 3.9 µM | 73.5 ± 3.8 µM | – | > 300 °C | – | COc1ccc(-c2cc(-c3ccc(Cl)c(Cl)c3)[nH]c(=O)c2C#N)cc1OC1CCCC1 [Compound 12c, 4-(3-(Cyclopentyloxy)-4-methoxyphenyl)-6-(3,4-dichlorophenyl)-2-oxo-1,2-dihydropyridine-3-carbonitrile] | – | – | – | – | – | – | –

Further lines, the molecule ahead of its results:

Row | SMILES | IC50 (MCF-7 cell line; [2]) | IC50 (HePG2 cell line; [3]) | IC50 (HCT-116 cell line; [4]) | IC50 (HeLa cell line; [5]) | IC50 (PC3 cell line; [6]) | IC50 [1, 7] | melting point | IC50 ([1]; range over (all or some of) HePG2, HCT-116, MCF-7, PC3, HeLa) | IC50 (MCF-7 cell line; [8]) | IC50 (HePG2 cell line; [9]) | IC50 (HCT-116 cell line; [10]) | IC50 (HeLa cell line; [11]) | IC50 (PC3 cell line; [12]) | IC50 ([1]; Homo sapiens) | antitumor activity against the tested cancer cell lines (in words) ([1]; all tested cancer cell lines)
7 | CN(C)C/C=C/C(=O)Nc1cc2c(Nc3ccc(F)c(Cl)c3)ncnc2cc1O[C@H]1CCOC1 [Afatinib, afatinib, reference compound] | 7.1 ± 0.49 µM | 5.4 ± 0.25 µM | 11.4 ± 1.26 µM | 6.2 ± 0.67 µM | 7.7 ± 0.57 µM | 5.4 to 11.4 µM | – | – | – | – | – | – | – | – | –
8 | COc1ccc(C=C2CCCC2=O)cc1OC1CCCC1 [Compound 3a, 2-(3-(Cyclopentyloxy)-4-methoxybenzylidene)cyclopentanone] | 56.1 ± 2.6 µM | 96 ± 5.2 µM | > 100 µM | 59.1 ± 3.8 µM | 51.4 ± 3 µM | – | – | – | – | – | – | – | – | – | –
9 | COc1ccc(C=C2CCCCC2=O)cc1OC1CCCC1 [Compound 3b, 2-(3-(Cyclopentyloxy)-4-methoxybenzylidene)cyclohexanone] | 23.8 ± 1.5 µM | 53.9 ± 3.7 µM | 80.6 ± 3.9 µM | 26.1 ± 1.9 µM | 19.3 ± 1.8 µM | – | 245 to 247 °C | – | – | – | – | – | – | – | –
10 | COc1ccc(C=C2CCCCCC2=O)cc1OC1CCCC1 [Compound 3c, 2-(3-(Cyclopentyloxy)-4-methoxybenzylidene)cycloheptanone] | > 100 µM | 86.9 ± 4.5 µM | 93.5 ± 5.1 µM | 81.7 ± 4.7 µM | > 100 µM | – | 250 to 252 °C | – | – | – | – | – | – | – | –
11 | COc1ccc(C2NC(=S)NC3=C2CCCC3)cc1OC1CCCC1 (stereo not shown) [Compound 5a, 4-(3-(Cyclopentyloxy)-4-methoxyphenyl)-3,4,5,6,7,8-hexahydroquinazoline-2(1H)-thione] | 92.4 ± 5.2 µM | 73.4 ± 3.7 µM | 66.5 ± 3.8 µM | 84.3 ± 4.6 µM | 79 ± 4.1 µM | – | 199 to 201 °C | – | – | – | – | – | – | – | –
12 | COc1ccc(C2NC(=S)NC3=C2CCCCC3)cc1OC1CCCC1 (stereo not shown) [Compound 5b, 4-(3-(Cyclopentyloxy)-4-methoxyphenyl)-1,3,4,5,6,7,8,9-octahydro-2H-cyclohepta[d]pyrimidine-2-thione] | 81.2 ± 4.3 µM | 59.1 ± 3.5 µM | 61.1 ± 3.6 µM | 46.3 ± 3 µM | 55.2 ± 3.1 µM | – | – | – | – | – | – | – | – | – | –
13 | COc1ccc(C2NC(=O)NC3=C2C(=O)CC(C)(C)C3)cc1OC1CCCC1 (stereo not shown) [Compound 6a, 4-(3-(Cyclopentyloxy)-4-methoxyphenyl)-7,7-dimethyl-4,6,7,8-tetrahydroquinazoline-2,5(1H,3H)-dione] | 28.6 ± 1.6 µM | 18.5 ± 1.7 µM | 30.5 ± 1.8 µM | 19.1 ± 1.7 µM | 27.4 ± 2.1 µM | 18.5 to 30.5 µM | 230 to 232 °C | – | – | – | – | – | – | – | –
14 | COc1ccc(C2NC(=S)NC3=C2C(=O)CC(C)(C)C3)cc1OC1CCCC1 (stereo not shown) [Compound 6b, 4-(3-(Cyclopentyloxy)-4-methoxyphenyl)-7,7-dimethyl-2-thioxo-2,3,4,6,7,8-hexahydroquinazolin-5(1H)-one] | 10.3 ± 1.1 µM | 16.1 ± 1.4 µM | 25.4 ± 1.7 µM | 13.5 ± 1.4 µM | 17.9 ± 1.6 µM | 10.3 to 25.4 µM | 233 to 235 °C | – | – | – | – | – | – | – | –
15 | COc1ccc(-c2nc3c4ccccc4c4ccccc4c3[nH]2)cc1OC1CCCC1 [Compound 7a, 2-(3-(Cyclopentyloxy)-4-methoxyphenyl)-1H-phenanthro[9,10-d]imidazole] | – | – | – | – | – | – | 290 to 292 °C | – | 89.8 ± 4.3 µM | 78.2 ± 4.4 µM | 90.3 ± 4.9 µM | 77.6 ± 4.6 µM | > 100 µM | 53.2 to 90.3 µM | –
16 | COc1ccc(-c2nc3c4ccccc4c4ccccc4c3n2-c2ccc(C)cc2)cc1OC1CCCC1 [Compound 7c, 2-(3-(Cyclopentyloxy)-4-methoxyphenyl)-1-(4-methylphenyl)-1H-phenanthro[9,10-d]imidazole] | – | – | – | – | – | – | 291 to 294 °C | – | 65.3 ± 3.4 µM | 57.1 ± 3.9 µM | 81.2 ± 4.2 µM | 53.2 ± 3.7 µM | 68.1 ± 3.5 µM | 53.2 to 90.3 µM | –
17 | COc1ccc(-c2nc3c4ccccc4c4ccccc4c3n2-c2ccc(F)cc2)cc1OC1CCCC1 [Compound 7d, 2-(3-(Cyclopentyloxy)-4-methoxyphenyl)-1-(4-fluorophenyl)-1H-phenanthro[9,10-d]imidazole] | – | – | – | – | – | – | 290 to 292 °C | – | > 100 µM | > 100 µM | > 100 µM | > 100 µM | > 100 µM | – | no antitumor activity
18 | COc1ccc(-c2nc3c4ccccc4c4ccccc4c3n2-c2ccc(Cl)cc2)cc1OC1CCCC1 [Compound 7e, 2-(3-(Cyclopentyloxy)-4-methoxyphenyl)-1-(4-chlorophenyl)-1H-phenanthro[9,10-d]imidazole] | – | – | – | – | – | – | 294 to 296 °C | – | 42.4 ± 2.2 µM | 29.9 ± 2.1 µM | 44.8 ± 2.3 µM | 38.1 ± 2.5 µM | 47 ± 2.7 µM | 29.8 to 47 µM | –
19 | COc1ccc(C2C3=C(CC(C)(C)CC3=O)NC3=C2C(=O)CC(C)(C)C3)cc1OC1CCCC1 [Compound 8, 9-(3-(Cyclopentyloxy)-4-methoxyphenyl)-3,3,6,6-tetramethyl-3,4,6,7,9,10-hexahydroacridine-1,8(2H,5H)-dione] | 60.5 ± 2.8 µM | 41.8 ± 3 µM | 70.5 ± 3.5 µM | 43.5 ± 2.9 µM | 55.8 ± 3.2 µM | 29.8 to 47 µM | 286 to 287 °C | 41.8 to 70.5 µM | – | – | – | – | – | – | –
20 | COc1ccc(C(=S)Nc2ccc(F)cc2)cc1OC1CCCC1 [Compound 10, 3-(Cyclopentyloxy)-N-(4-fluorophenyl)-4-methoxybenzothioamide] | 64.1 ± 3.1 µM | 49.9 ± 3.5 µM | 79.1 ± 3.8 µM | 52.5 ± 3.7 µM | 47.3 ± 2.9 µM | 47.3 to 79.1 µM | 194 to 196 °C | – | – | – | – | – | – | – | –
21 | COc1ccc(C(=S)N(C)C)cc1OC1CCCC1 [Compound 11, 3-(Cyclopentyloxy)-4-methoxy-N,N-dimethylbenzothioamide] | 94.3 ± 4.7 µM | 91.2 ± 4.8 µM | 96.8 ± 5.5 µM | 90.9 ± 4.9 µM | 88.6 ± 5 µM | 88.6 to 96.8 µM | 189 to 191 °C | – | – | – | – | – | – | – | –
22 | COc1ccc(-c2nc3n(c(=O)c2C#N)C(=O)CS3)cc1OC1CCCC1 [Compound 14, 7-(3-(Cyclopentyloxy)-4-methoxyphenyl)-3,5-dioxo-2,3-dihydro-5H-thiazolo[3,2-a]pyrimidine-6-carbonitrile] | 9.62 ± 0.9 µM | 20.1 ± 1.8 µM | 34.9 ± 1.9 µM | 12.5 ± 1.2 µM | 15.3 ± 1.3 µM | 5.86 to 20.1 µM | 265 to 267 °C | – | – | – | – | – | – | – | –
23 | COc1cccc2c1C(=O)c1c(O)c3c(c(O)c1C2=O)C[C@@](O)(C(=O)CO)C[C@@H]3O[C@H]1C[C@H](N)[C@H](O)[C@H](C)O1 [DOX, doxorubicin, reference compound] | – | – | – | – | – | 4.17 to 8.87 µM | – | – | – | – | – | – | – | – | –
